In patent US20100324132A1, “METHODS AND COMPOSITIONS FOR PROMOTING WOUND HEALING” (priority 2005, published 2010):

Assays:
Staphylococcus aureus [1] = assay: Antibiotic resistance profile, disc diffusion; further: key: R = resistant; I = intermediate; S = sensitive; assay type: cell-based; conditions: S. aureus isolated from burn patients
Pseudomonas aeruginosa [2] = assay: Antibiotic resistance profile, disc diffusion; further: key: R = resistant; I = intermediate; S = sensitive; assay type: cell-based; conditions: P. aeruginosa isolated from burn patients
Enterococcus faecalis [3] = assay: Antibiotic resistance profile, disc diffusion; further: key: R = resistant; I = intermediate; S = sensitive; assay type: cell-based; conditions: E. faecalis isolated from burn patients
[4] = tested on: surface ulcers with multiple resistant pathogenic species; assay: Bath treatment of ulcerated Koi; assay type: in vivo, Koi (Cyprinus carpio); conditions: antibiotics injected directly into the fish before the bath treatment
Protocol: An immersion treatment of the infected animals of 5 to 10 minutes on alternate days over a six day period promoted healing of most ulcers.
All of the treated fish had previously been given injections of Azactam, Baytril, and Amikacin. […] Among the species of bacteria found in the ulcers of the fish were representatives of the genera Aeromonas, Proteus, Klebsiella, Staphylococcus, Streptococcus, Enterobacter and Flavobacterium.
All fish were housed in a communal “hospital tank” before treatment and moved to an isolation tank after each treatment. The temperature of the bath was adjusted to that of the hospital tank temperature, 24 C, and adequate aeration was supplied to the treatment tank. Eight of the fish had external ulcers of various dimensions. Two of the fish were dropsied.

Enterococcus faecalis [5] = assay: MIC/MBC and checkerboard of EDTA-Tris and neomycin; assay type: cell-based; conditions: in 50 mM Tris
Protocol: (§1) This example describes a method for determining the FIC values set forth in Example 4. […] Agents and Chem. pp. 210-217 (1967); and Sparks et al., Vet. Res. Comm. 18:241-249 (1994). Each of the foregoing publications are incorporated herein by reference.
(§2) Then 0.05 ml of an 18-hour old culture of a test organism, containing […] colony-forming units (CFU) ml, were added to each well. Controls for the culture and media were included in each plate. Plates were covered and incubated at 37° C. for 18-24 hours.
(§3) To generate isobolograms, FICs of the two test solutions were plotted individually on the x-axis and y-axis to determine the effect of combining the two test solutions on bacterial growth. A line that curves away from the zero point and the coordinates indicated antagonism. […] Goodman and Gilman, pp. 1085-1086 (Macmillan Publishing Co., New York, 1985); Sabath, L. D., Antimicrob. Agents and Chem. pp. 210-217 (1967) and incorporated herein by reference in their entireties.
(§4) A numerical score or Fractional Inhibitory Concentration (FIC) index was determined. The FIC index is equal to the sum of the values of FIC for the individual drugs:
(§5) An FIC index greater than 1.0 indicated an antagonistic interaction, an FIC index of 1.0 indicated addition, and an FIC index of less than or equal to 0.5 indicated synergism between the two test agents.
(§6) The organisms of this study were isolated from human burn patients. They included strains of methicillin resistant Staphylococcus aureus, and vancomycin resistant strains of Pseudomonas aeruginosa and Enterococcus faecalis. The bacterial isolates were propagated in or on Brain Heart Infusion broth (BHI), Mueller-Hinton Broth (MHB), blood agar (BA), Mueller-Hinton agar (MBA), enterococcus agar (EA), or 2× nutrient agar (2× NA).
(§7) 307 (pub: Am. Soc. Microbiol. Williams and Wilkins, Baltimore 1970), incorporated herein by reference in its entirety.

Pseudomonas aeruginosa [6] = assay: MIC/MBC and checkerboard of EDTA-Tris and neomycin; assay type: cell-based; conditions: in 50 mM Tris
Protocol: as §1, §2, §3, §4, §5, §6, §7

Aeromonas caviae = assay: MIC and FIC of EDTA and neomycin, Aeromonas isolated from ulcerated fish; assay type: cell-based; conditions: A. caviae
Protocol: (§8) This example describes a method for determining the FIC values set forth in Example 4. […] Agents and Chem. pp. 210-217 (1967); and Sparks et al., Vet. Res. Comm. 18:241-249 (1994). Each of the foregoing publications are incorporated herein by reference. […] Then 0.05 ml of an 18-hour old culture of a test organism, containing […] colony-forming units (CFU) ml, were added to each well. Controls for the culture and media were included in each plate. Plates were covered and incubated at 37° C. for 18-24 hours. A numerical score or Fractional Inhibitory Concentration (FIC) index was determined. The FIC index is equal to the sum of the values of FIC for the individual drugs: An FIC index greater than 1.0 indicated an antagonistic interaction, an FIC index of 1.0 indicated addition, and an FIC index of less than or equal to 0.5 indicated synergism between the two test agents.

Aeromonas sobria = assay: as above; assay type: cell-based; conditions: A. sobria
Protocol: as §8

Candida albicans = assay: MIC/MBC of cocamidopropyl betaine, Tris-EDTA and their combination, dog isolates; assay type: cell-based
Protocol: (§9) The formulation was tested against Pseudomonas aeruginosa, Proteus mirabilis, Escherichia coli, Staphylococcus intermedius, Malessezia pachydermatis, and Candida albicans.

Escherichia coli = assay: as above; assay type: cell-based
Protocol: as §9

Malassezia pachydermatis = assay: as above; assay type: cell-based
Protocol: as §9

Proteus mirabilis = assay: as above; assay type: cell-based
Protocol: as §9

Pseudomonas aeruginosa [7] = assay: as above; assay type: cell-based
Protocol: as §9

[8] = tested on: Staphylococcus intermedius; assay: as above; assay type: cell-based
Protocol: as §9

Pseudomonas aeruginosa [9] = assay: MIC/MBC of Tris, EDTA, cocamidopropyl betaine and silver combinations, human burn isolates; assay type: cell-based; conditions: P. aeruginosa isolated from a human burn patient; x = multiple of the stock solution
Staphylococcus aureus [10] = assay: as above; assay type: cell-based; conditions: S. aureus isolated from a human burn patient; x = multiple of the stock solution
Staphylococcus aureus [11] = assay: MIC/MBC and checkerboard of EDTA-Tris and neomycin; assay type: cell-based; conditions: in 50 mM Tris
Protocol: as §1, §2, §3, §4, §5, §6, §7

Aeromonas hydrophila = assay: MIC and FIC of EDTA and neomycin, Aeromonas isolated from ulcerated fish; assay type: cell-based; conditions: A. hydrophila
Protocol: as §8

[12] = C. albicans from dogs, x = multiple of the 1x stock solution
[13] = E. coli isolated from a dog with otitis externa, x = multiple of the 1x stock solution
[14] = M. pachydermatis from dogs, x = multiple of the 1x stock solution
[15] = P. mirabilis from dogs, x = multiple of the 1x stock solution
[16] = P. aeruginosa from dogs with otitis externa and pyoderma, x = multiple of the 1x stock solution
[17] = S. intermedius from dogs, x = multiple of the 1x stock solution

Molecule: CC1(C)S[C@@H]2[C@H](NC(=O)[C@H](N)c3ccccc3)C(=O)N2[C@H]1C(=O)O [Am, ampicillin]
- Antibiotic resistance profile (Staphylococcus aureus [1]): R^B
- Antibiotic resistance profile (Pseudomonas aeruginosa [2]): R
- Antibiotic resistance profile (Enterococcus faecalis [3]): S

Molecule: NCC[C@H](O)C(=O)N[C@@H]1C[C@H](N)[C@@H](O[C@H]2O[C@H](CN)[C@@H](O)[C@H](O)[C@H]2O)[C@H](O)[C@H]1O[C@H]1O[C@H](CO)[C@@H](O)[C@H](N)[C@H]1O [Amikacin]
- Healing of ulcers [4]: failed to heal visible ulcers

Molecule: C[C@H]1[C@H](NC(=O)/C(=N\OC(C)(C)C(=O)O)c2csc(N)n2)C(=O)N1S(=O)(=O)O [Azactam]
- Healing of ulcers [4]: failed to heal visible ulcers

Molecule: CCN1CCN(c2cc3c(cc2F)c(=O)c(C(=O)O)cn3C2CC2)CC1 [Baytril]
- Healing of ulcers [4]: failed to heal visible ulcers

Molecule: O=C(N[C@H](CO)[C@H](O)c1ccc([N+](=O)[O-])cc1)C(Cl)Cl [C, chloramphenicol]
- Antibiotic resistance profile (Staphylococcus aureus [1]): I
- Antibiotic resistance profile (Pseudomonas aeruginosa [2]): R
- Antibiotic resistance profile (Enterococcus faecalis [3]): R

Molecule: CC[C@H]1OC(=O)[C@H](C)[C@@H](O[C@H]2C[C@@](C)(OC)[C@@H](O)[C@H](C)O2)[C@H](C)[C@@H](O[C@@H]2O[C@H](C)C[C@H](N(C)C)[C@H]2O)[C@](C)(O)C[C@@H](C)C(=O)[C@H](C)[C@@H](O)[C@]1(C)O [E, erythromycin]
- Antibiotic resistance profile (Staphylococcus aureus [1]): R
- Antibiotic resistance profile (Pseudomonas aeruginosa [2]): R
- Antibiotic resistance profile (Enterococcus faecalis [3]): R

Molecule: O=C(O)CN(CCN(CC(=O)O)CC(=O)O)CC(=O)O [EDTA, ethylenediaminetetraacetate]
- MBC, individually administered (Enterococcus faecalis [5]): 250 mM
- MBC, individually administered (Pseudomonas aeruginosa [6]): 250 mM
- MIC, EDTA in 50 mM Tris alone (Aeromonas caviae): <0.49
- MIC, EDTA in 50 mM Tris alone (Aeromonas sobria): 15.6

Molecule: Cc1noc(NS(=O)(=O)c2ccc(N)cc2)c1C [G, sulfisoxazole]
- Antibiotic resistance profile (Staphylococcus aureus [1]): S
- Antibiotic resistance profile (Pseudomonas aeruginosa [2]): R
- Antibiotic resistance profile (Enterococcus faecalis [3]): R

Molecule: NC[C@H]1O[C@H](O[C@H]2[C@H](O)[C@@H](O[C@H]3O[C@H](CO)[C@@H](O)[C@H](N)[C@H]3O)[C@H](N)C[C@@H]2N)[C@H](O)[C@@H](O)[C@@H]1O [K, kanamycin]
- Antibiotic resistance profile (Staphylococcus aureus [1]): R
- Antibiotic resistance profile (Pseudomonas aeruginosa [2]): R
- Antibiotic resistance profile (Enterococcus faecalis [3]): R

Molecule: CCn1cc(C(=O)O)c(=O)c2ccc(C)nc21 [NA, nalidixic acid]
- Antibiotic resistance profile (Staphylococcus aureus [1]): R
- Antibiotic resistance profile (Pseudomonas aeruginosa [2]): R
- Antibiotic resistance profile (Enterococcus faecalis [3]): R

Molecule: [H]/N=C(/N)N[C@H]1[C@H](O)[C@@H](O)[C@H](O[C@@H]2O[C@@H](C)[C@](O)(C=O)[C@H]2O[C@@H]2O[C@@H](CO)[C@H](O)[C@@H](O)[C@@H]2NC)[C@@H](N/C(N)=N\[H])[C@@H]1O [S, streptomycin]
- Antibiotic resistance profile (Staphylococcus aureus [1]): S
- Antibiotic resistance profile (Pseudomonas aeruginosa [2]): R
- Antibiotic resistance profile (Enterococcus faecalis [3]): R

Molecule: CN(C)[C@@H]1C(O)=C(C(N)=O)C(=O)[C@@]2(O)C(O)=C3C(=O)c4c(O)cccc4[C@@](C)(O)[C@H]3C[C@@H]12 [Te, tetracycline]
- Antibiotic resistance profile (Staphylococcus aureus [1]): S
- Antibiotic resistance profile (Pseudomonas aeruginosa [2]): R
- Antibiotic resistance profile (Enterococcus faecalis [3]): R

Molecule: CN[C@H](CC(C)C)C(=O)N[C@H]1C(=O)N[C@@H](CC(N)=O)C(=O)N[C@H]2C(=O)N[C@H]3C(=O)N[C@H](C(=O)N[C@H](C(=O)O)c4cc(O)cc(O)c4-c4cc3ccc4O)[C@H](O)c3ccc(c(Cl)c3)Oc3cc2cc(c3O[C@@H]2O[C@H](CO)[C@@H](O)[C@H](O)[C@H]2O[C@H]2C[C@](C)(N)[C@H](O)[C@H](C)O2)Oc2ccc(cc2Cl)[C@H]1O [Va, vancomycin]
- Antibiotic resistance profile (Staphylococcus aureus [1]): S
- Antibiotic resistance profile (Pseudomonas aeruginosa [2]): R
- Antibiotic resistance profile (Enterococcus faecalis [3]): R

Molecule: cocamidopropyl betaine
- MBC (Candida albicans; C. albicans): 0.3% of stock solution
- MIC (Candida albicans; C. albicans): 0.1% of stock solution
- MBC (Candida albicans; [12]): 0.003x
- MIC (Candida albicans; [12]): 0.001x
- MBC (Escherichia coli; E. coli): 50% of stock solution
- MIC (Escherichia coli; E. coli): 25% of stock solution
- MBC (Escherichia coli; [13]): 0.5x
- MIC (Escherichia coli; [13]): 0.25x
- MBC (Malassezia pachydermatis; M. pachydermatis): 0.3% of stock solution
- MIC (Malassezia pachydermatis; M. pachydermatis): 0.1% of stock solution
- MBC (Malassezia pachydermatis; [14]): 0.003x
- MIC (Malassezia pachydermatis; [14]): 0.001x
- MBC (Proteus mirabilis; P. mirabilis): 50% of stock solution
- MIC (Proteus mirabilis; P. mirabilis): 25% of stock solution
- MBC (Proteus mirabilis; [15]): 0.5x
- MIC (Proteus mirabilis; [15]): 0.25x
- MBC (Pseudomonas aeruginosa [7]; P. aeruginosa): 50% of stock solution
- MIC (Pseudomonas aeruginosa [7]; P. aeruginosa): 25% of stock solution
- MBC (Pseudomonas aeruginosa [7]; [16]): 0.5x
- MIC (Pseudomonas aeruginosa [7]; [16]): 0.25x
- MBC ([8]; S. intermedius): 0.1% of stock solution
- MIC ([8]; S. intermedius): 0.1% of stock solution
- MBC [8, 17]: 0.001x
- MIC [8, 17]: 0.001x
- MBC (Pseudomonas aeruginosa [9]): 0.5x
- MIC (Pseudomonas aeruginosa [9]): 0.25x
- MBC (Staphylococcus aureus [10]): 0.001x
- MIC (Staphylococcus aureus [10]): 0.001x

Molecule: gentamicin [GM]
- Antibiotic resistance profile (Staphylococcus aureus [1]): S
- Antibiotic resistance profile (Pseudomonas aeruginosa [2]): I
- Antibiotic resistance profile (Enterococcus faecalis [3]): R

Molecule: neomycin
- Antibiotic resistance profile (Staphylococcus aureus [1]): R
- Antibiotic resistance profile (Pseudomonas aeruginosa [2]): R
- Antibiotic resistance profile (Enterococcus faecalis [3]): R
- MBC, individually administered (Enterococcus faecalis [5]): 25000 µg/mL
- MBC, individually administered (Pseudomonas aeruginosa [6]): 5000 µg/mL
- MBC, individually administered (Staphylococcus aureus [11]): 3130 µg/mL
- MIC, neomycin alone (Aeromonas caviae): 12.5 µg/mL
- MIC, neomycin alone (Aeromonas hydrophila): 200 µg/mL
- MIC, neomycin alone (Aeromonas sobria): 12.5 µg/mL

Molecule: oxacillin/methicillin
- Antibiotic resistance profile (Staphylococcus aureus [1]): R
- Antibiotic resistance profile (Pseudomonas aeruginosa [2]): R
- Antibiotic resistance profile (Enterococcus faecalis [3]): R
